The source of these data is patent US12208143B2, “Compositions and methods for transport across the blood brain barrier” (OPHIDION INC., priority 2011, dated 2025).

Entries after “also recorded” stand apart in the source; their conditions may differ. Like-named read-outs stand apart in the source and are kept apart here.

Data set [1] relates to lynx1 mRNA. As to the kind of experiment: Knock-down of lynx1 mRNA after delivery of anti-lynx1 siRNA into cultured cortical neurons via peptide variant-siRNA complexes (qPCR). The data set is classed as cell-based, mouse.
Data set [2] has as its system lynx1 mRNA. As to the kind of experiment: siRNA uptake of peptide-lynx1 siRNA complexes into primary neuronal cultures (lynx1 mRNA knock-down, qPCR). Conditions: 25 uM peptide + 2.5 uM lynx1 siRNA (siRNA1), poly-D arginine linker, 24 hours, primary cortical mouse neurons, FIG. 8. The data set is classed as cell-based. Background: Real-time PCR tracks product formation cycle by cycle.

In data set [3] the test system is lynx1 mRNA. The experiment in a line: lynx1 knock-down by lynx1 siRNA species in cultured cortical neurons (TaqMan qPCR). The data set is classed as cell-based, mouse. The conditions noted are these: siRNA transfected by Accell method, lynx1 mRNA relative to mock, FIG. 6.
The subject of data set [4] is primary cortical neurons. It counts as cell-based, mouse.

MTWCDYFTPSRGKVRKS [Mutant 1]: in data set [1], the “decrease of lynx1 mRNA compared to RVG29 and RVG19 complexes” value was “more effective at decreasing levels of lynx1 mRNA compared to RVG29 and RVG19; also recorded: decrease lynx1 mRNA in cultured cortical neurons more effectively than both RVG29 and RVG19”; the “knock-down of lynx1 mRNA relative to the lynx1-loop2 peptide-siRNA complex” value was “as capable of translocating siRNA into neurons as is lynx1-loop2; also recorded: enhanced the knock-down compared to SEQ ID NO:2 peptide; also recorded: capable of decreasing lynx1 expression in cultured cortical neurons as well as a peptide having the sequence of SEQ ID NO:2”. With MTTRTYATPYRMKVRKS [Mutant 2], the “knock-down of lynx1 mRNA relative to the lynx1-loop2 peptide-siRNA complex” value in data set [1] is on record as “significantly reduces lynx1-loop2 peptide ability to transport siRNA into neurons; also recorded: not as effective for decreasing lynx1 expression”. Same read-out and setting: next, MTTRTYFTPYAMADRKS [Mutant 3]: “abolish lynx1-loop2 peptide function; also recorded: not as effective for decreasing lynx1 expression”.

As to “GCACUGAUUUGAUAGAAUU (siRNA; purchased Accell siRNA, chemistry not given here) [siRNA1, SMART pool siRNA A-062811-13 LYNX1, Thermo Scientific/Dharmacon]”, in data set [2], the “reduction in lynx1 mRNA compared to no siRNA (Mock)” value is recorded as “no significant reduction in lynx1 mRNA levels”. Also, in data set [3], the “reduction of lynx1 expression” value was “more than 90%”. For the same sequence, the “knock-down of lynx1 mRNA relative to the lynx1-loop2 peptide-siRNA complex” value in data set [1] (5 μM peptide + 0.5 μM anti-lynx1 siRNA, 24 hours, cultured cortical neurons, lynx1-loop2 set to 100%, siRNA alone set at 0%, FIG. 10) is “did not result in knock-down of lynx1 mRNA”.

For the sequence EVMEQSAGIMYRKS [lynx2-loop2], the “binding of biotinylated peptide to neurons in culture” value in data set [4] was “did not reliably bind to neurons”.
